Results: ChEMBL document CHEMBL1201862, “PubChem BioAssay data set” (2004)
Values joined by “and” are separate entries in the source; they are usually repeats but may differ in a detail not shown here. Equal values may be shown once.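 Following 48 hours of exposure in 96-well plates, responses at five concentrations were used to interpolate endpoints linearly. Abbreviation: GI50, concentration required for 50% inhibition of growth.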 Active and inactive are the calls of the source. Rule as the data show it: active = GI50 up to about 1.1 µM and inactive = higher.

Assays:
Test in all cases: inhibition of tumour cell growth, NCI panel, 48 h
NCI-H522 = tested on: NCI-H522
NCI-H226 = tested on: NCI-H226
MCF7 = tested on: MCF7
BT-549 = tested on: BT-549
HCT-116 = tested on: HCT-116
SK-OV-3 = tested on: SK-OV-3
OVCAR-8 = tested on: OVCAR-8
KM12 = tested on: KM12
PC-3 = tested on: PC-3
SF-539 = tested on: SF-539
ACHN = tested on: ACHN
SW-620 = tested on: SW-620
A549 = tested on: A549
U-251 = tested on: U-251
SNB-19 = tested on: SNB-19
COLO 205 = tested on: COLO 205
SNB-75 = tested on: SNB-75
UACC-62 = tested on: UACC-62
CCRF-CEM = tested on: CCRF-CEM
HOP-92 = tested on: HOP-92

Measured: GI50

O=C(CCCn1ccnc1[N+](=O)[O-])NCCn1ccnc1
inactive: NCI-H522 > 100 µM | NCI-H226 > 100 µM | MCF7 > 100 µM | BT-549 > 100 µM | HCT-116 > 100 µM | SK-OV-3 > 100 µM | OVCAR-8 > 100 µM | KM12 > 100 µM | PC-3 > 100 µM | SF-539 > 100 µM | ACHN > 100 µM | SW-620 > 100 µM | A549 > 100 µM | U-251 > 100 µM | SNB-19 > 100 µM | COLO 205 67 µM | SNB-75 > 100 µM | UACC-62 > 100 µM | CCRF-CEM > 100 µM

O=C(O)C(CCc1ccccc1)N1C(=O)c2ccccc2C1=O (centres undefined)
inactive: NCI-H226 > 100 µM | MCF7 > 100 µM | BT-549 > 100 µM | HCT-116 > 100 µM | SK-OV-3 > 100 µM | OVCAR-8 > 100 µM | KM12 > 100 µM | PC-3 > 100 µM | SF-539 > 100 µM | ACHN > 100 µM | HOP-92 > 100 µM | SW-620 > 100 µM | A549 > 100 µM | U-251 > 100 µM | SNB-19 > 100 µM | COLO 205 > 100 µM | SNB-75 > 100 µM | UACC-62 > 100 µM | CCRF-CEM > 100 µM

Oc1c(OCc2nnc(CCCCCCCCc3nnc(COc4ccc5ccccc5c4O)n3Nc3ccccc3)n2Nc2ccccc2)ccc2ccccc12
inactive: NCI-H522 7.08 µM | NCI-H226 7.55 µM | MCF7 3.52 µM | BT-549 8.73 µM | HCT-116 9.2 µM | SK-OV-3 9.77 µM | OVCAR-8 11.2 µM | KM12 3 µM | PC-3 2.1 µM | SF-539 3.98 µM | HOP-92 15.7 µM | SW-620 10.4 µM | A549 6.46 µM | U-251 12 µM | SNB-19 11.8 µM | SNB-75 17.5 µM
active: ACHN 0.845 µM | COLO 205 0.558 µM | UACC-62 0.671 µM

Cn1c2ccccc2n2c3ncccc3/c(=N/CCCC(=O)O)c(C#N)c12
inactive: NCI-H522 > 100 µM | NCI-H226 > 100 µM | MCF7 > 100 µM | BT-549 > 100 µM | HCT-116 > 100 µM | SK-OV-3 > 100 µM | OVCAR-8 > 100 µM | KM12 > 100 µM | PC-3 > 100 µM | ACHN > 100 µM | SW-620 > 100 µM | A549 > 100 µM | U-251 > 100 µM | SNB-19 > 100 µM | COLO 205 > 100 µM | SNB-75 > 100 µM | UACC-62 > 100 µM | CCRF-CEM > 100 µM

Nc1nc(Nc2ccc(Cl)cc2)sc1C(=O)c1cccs1
inactive: NCI-H226 24.7 µM | MCF7 33.4 µM | BT-549 40.5 µM | HCT-116 14.7 µM | SK-OV-3 22.9 µM | KM12 > 100 µM | PC-3 > 100 µM | SF-539 21.6 µM | ACHN 36.3 µM | HOP-92 44.5 µM | SW-620 59 µM | A549 27.9 µM | U-251 14.7 µM | SNB-19 19.9 µM | COLO 205 > 100 µM | UACC-62 > 100 µM | CCRF-CEM 53.7 µM

Cc1nc2cc(F)c(F)cc2[nH]c1=O
inactive: NCI-H226 > 100 µM | MCF7 > 100 µM | BT-549 > 100 µM | HCT-116 > 100 µM | SK-OV-3 > 100 µM | OVCAR-8 > 100 µM | KM12 > 100 µM | PC-3 > 100 µM | SF-539 > 100 µM | ACHN > 100 µM | HOP-92 > 100 µM | SW-620 > 100 µM | A549 > 100 µM | U-251 > 100 µM | SNB-19 > 100 µM | COLO 205 > 100 µM | SNB-75 > 100 µM | UACC-62 > 100 µM | CCRF-CEM > 100 µM

Cc1ccc(S(=O)(=O)SC/C=C\CSS(=O)(=O)c2ccc(C)cc2)cc1
active: CCRF-CEM 0.262 µM
inactive: NCI-H226 23.1 µM and 24.3 µM | MCF7 3.51 µM | BT-549 9.59 µM | SK-OV-3 43.5 µM and 55.8 µM | OVCAR-8 18.9 µM and 13.3 µM | KM12 14.7 µM and 17.2 µM | PC-3 19.9 µM | ACHN 29.6 µM and 25.1 µM | HOP-92 14.4 µM and 16.2 µM | A549 31.5 µM and 35.7 µM | U-251 15.8 µM and 15.9 µM | SNB-19 34.2 µM and 29.6 µM | SNB-75 19.1 µM and 36.6 µM | UACC-62 17.6 µM and 20.9 µM

O=[N+]([O-])c1ccc(OP(=O)(O)OCC2OC(CP(=O)(O)O)C(O)C2O)cc1 (centres undefined)
inactive: NCI-H522 > 100 µM | MCF7 > 100 µM | BT-549 > 100 µM | HCT-116 > 100 µM | OVCAR-8 > 100 µM | KM12 > 100 µM | PC-3 > 100 µM | SF-539 > 100 µM | ACHN > 100 µM | HOP-92 > 100 µM | SW-620 > 100 µM | A549 > 100 µM | U-251 > 100 µM | SNB-19 > 100 µM | COLO 205 > 100 µM | UACC-62 > 100 µM | CCRF-CEM > 100 µM

CCOC(=O)CN1C(=O)NC(C)(c2ccccc2)C1=O (centres undefined)
inactive: NCI-H522 > 100 µM | MCF7 > 100 µM | BT-549 > 100 µM | HCT-116 > 100 µM | SK-OV-3 > 100 µM | OVCAR-8 > 100 µM | KM12 > 100 µM | PC-3 > 100 µM | SF-539 > 100 µM | ACHN > 100 µM | HOP-92 > 100 µM | SW-620 > 100 µM | A549 > 100 µM | U-251 > 100 µM | SNB-19 > 100 µM | COLO 205 > 100 µM | SNB-75 > 100 µM | UACC-62 > 100 µM | CCRF-CEM > 100 µM

CN1C(=O)CN=C(c2ccccc2F)c2cc(N=C=S)ccc21
active: NCI-H522 0.665 µM
inactive: MCF7 29.5 µM | BT-549 58.5 µM | HCT-116 44.3 µM | SK-OV-3 > 100 µM | OVCAR-8 47.5 µM | KM12 44.6 µM | PC-3 45.9 µM | ACHN 25.5 µM | HOP-92 23.7 µM | SW-620 53.5 µM | A549 33.9 µM | U-251 48.4 µM | SNB-19 60 µM | SNB-75 33.5 µM | UACC-62 25.1 µM | CCRF-CEM 19.2 µM

CCNC(=S)N/N=C/c1cc([N+](=O)[O-])ccc1O
inactive: NCI-H522 21.5 µM | NCI-H226 27.9 µM | BT-549 36.9 µM | HCT-116 16.9 µM | SK-OV-3 15 µM | OVCAR-8 18 µM | KM12 23.8 µM | PC-3 28.3 µM | SF-539 35.4 µM | ACHN 25.8 µM | SW-620 40.5 µM | A549 33.4 µM | U-251 16.9 µM | SNB-19 34.1 µM | COLO 205 28.3 µM | SNB-75 52 µM | UACC-62 17.5 µM | CCRF-CEM 4.47 µM
active: MCF7 0.307 µM

COc1cc(/C=C2\N=C(c3ccccc3)N(c3nc4c(OC)ccc(OC)c4s3)C2=O)ccc1O
inactive: NCI-H522 31.1 µM | MCF7 17.3 µM | BT-549 96.4 µM | HCT-116 95.9 µM | SK-OV-3 > 100 µM | OVCAR-8 30.8 µM | KM12 51.2 µM | PC-3 32.4 µM | SF-539 57.9 µM | ACHN 59.2 µM | HOP-92 35.6 µM | SW-620 42.2 µM | A549 69.3 µM | U-251 29.9 µM | SNB-19 > 100 µM | COLO 205 96.8 µM | SNB-75 8.34 µM | UACC-62 33 µM | CCRF-CEM 28.1 µM

COCO[C@@H]1C[C@H]2C(=O)N(COC)c3ccccc3C(=O)N2C1
inactive: NCI-H522 > 100 µM | NCI-H226 > 100 µM | MCF7 > 100 µM | BT-549 > 100 µM | HCT-116 > 100 µM | SK-OV-3 > 100 µM | OVCAR-8 > 100 µM | KM12 > 100 µM | PC-3 > 100 µM | SF-539 > 100 µM | ACHN > 100 µM | SW-620 > 100 µM | A549 > 100 µM | U-251 > 100 µM | SNB-19 > 100 µM | COLO 205 > 100 µM | SNB-75 > 100 µM | UACC-62 > 100 µM | CCRF-CEM > 100 µM

Cc1nnc2sc(-c3ccc([N+](=O)[O-])o3)nn12
inactive: NCI-H522 3.03 µM | NCI-H226 15 µM | MCF7 7.18 µM | BT-549 10.7 µM | HCT-116 6.46 µM | SK-OV-3 18.7 µM | OVCAR-8 11.4 µM | KM12 15.8 µM | PC-3 14.7 µM | SF-539 4.84 µM | ACHN 11.2 µM | HOP-92 15.9 µM | SW-620 4.85 µM | A549 37.8 µM | U-251 14.7 µM | SNB-19 18.8 µM | COLO 205 13.2 µM | UACC-62 10.4 µM | CCRF-CEM 1.85 µM

Cc1cc(-c2nc3ccc(F)cc3s2)ccc1N
inactive: NCI-H522 21.5 µM | NCI-H226 59.8 µM | BT-549 > 100 µM | HCT-116 > 100 µM | OVCAR-8 > 100 µM | KM12 > 100 µM | PC-3 63.5 µM | SF-539 43.5 µM | ACHN 68.2 µM | HOP-92 > 100 µM | SW-620 > 100 µM | A549 42.5 µM | U-251 > 100 µM | SNB-19 > 100 µM | COLO 205 > 100 µM | SNB-75 > 100 µM | UACC-62 89.1 µM | CCRF-CEM 9.46 µM
active: MCF7 < 0.01 µM
